Data taken from ChEMBL document CHEMBL1201862, “PubChem BioAssay data set” (2004).
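In this assay, cells in 96-well plates receive the compound at five concentrations for 48 hours. Endpoints are linearly interpolated between the surrounding concentrations. GI50 marks 50% less growth.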 The source made the active and inactive calls. Rule as the data show it: active = GI50 up to about 1.1 µM and inactive = higher.

Experiments:
Test in all cases: inhibition of tumour cell growth, NCI panel, 48 h
786-0 = system: 786-0
A498 = system: A498
A549 = system: A549
ACHN = system: ACHN
BT-549 = system: BT-549
COLO 205 = system: COLO 205
EKVX = system: EKVX
HCC 2998 = system: HCC 2998
HCT-116 = system: HCT-116
HCT-15 = system: HCT-15
HL-60 = system: HL-60
HOP-62 = system: HOP-62
HT-29 = system: HT-29
Hs-578T = system: Hs-578T
IGROV-1 = system: IGROV-1
K562 = system: K562
KM12 = system: KM12
LOX IMVI = system: LOX IMVI
MCF7 = system: MCF7
MDA-MB-231 = system: MDA-MB-231
MDA-MB-435 = system: MDA-MB-435
MDA-N = system: MDA-N
MOLT-4 = system: MOLT-4
Malme-3M = system: Malme-3M
NCI-H23 = system: NCI-H23
NCI-H460 = system: NCI-H460
NCI-H522 = system: NCI-H522
NCI/ADR-RES = system: NCI/ADR-RES
OVCAR-3 = system: OVCAR-3
OVCAR-5 = system: OVCAR-5
OVCAR-8 = system: OVCAR-8
PC-3 = system: PC-3
RPMI-8226 = system: RPMI-8226
SF-295 = system: SF-295
SF-539 = system: SF-539
SK-MEL-28 = system: SK-MEL-28
SK-MEL-2 = system: SK-MEL-2
SK-MEL-5 = system: SK-MEL-5
SN12C = system: SN12C
SNB-19 = system: SNB-19
SR = system: SR
SW-620 = system: SW-620
T47D = system: T47D
TK-10 = system: TK-10
U-251 = system: U-251
UACC-257 = system: UACC-257
UACC-62 = system: UACC-62
UO-31 = system: UO-31
CAKI-1 = system: CAKI-1
CCRF-CEM = system: CCRF-CEM
DU-145 = system: DU-145
M14 = system: M14
NCI-H226 = system: NCI-H226
OVCAR-4 = system: OVCAR-4
RXF 393 = system: RXF 393
SF-268 = system: SF-268
SK-OV-3 = system: SK-OV-3
SNB-75 = system: SNB-75

N[C@@H](CCC(=O)NC(Cc1ccccc1)C(=O)NCP(=O)(O)O)C(=O)O (some centres undefined)
GI50 (786-0): > 100 µM (inactive)
GI50 (A498): > 100 µM (inactive)
GI50 (A549): > 100 µM (inactive)
GI50 (ACHN): > 100 µM (inactive)
GI50 (BT-549): 61.8 µM (inactive)
GI50 (COLO 205): > 100 µM (inactive)
GI50 (EKVX): > 100 µM (inactive)
GI50 (HCC 2998): > 100 µM (inactive)
GI50 (HCT-116): > 100 µM (inactive)
GI50 (HCT-15): > 100 µM
GI50 (HL-60): > 100 µM (inactive)
GI50 (HOP-62): > 100 µM (inactive)
GI50 (HT-29): > 100 µM (inactive)
GI50 (Hs-578T): > 100 µM (inactive)
GI50 (IGROV-1): > 100 µM (inactive)
GI50 (K562): > 100 µM (inactive)
GI50 (KM12): > 100 µM (inactive)
GI50 (LOX IMVI): > 100 µM (inactive)
GI50 (MCF7): > 100 µM (inactive)
GI50 (MDA-MB-231): > 100 µM (inactive)
GI50 (MDA-MB-435): > 100 µM (inactive)
GI50 (MDA-N): > 100 µM (inactive)
GI50 (MOLT-4): > 100 µM (inactive)
GI50 (Malme-3M): > 100 µM (inactive)
GI50 (NCI-H23): > 100 µM (inactive)
GI50 (NCI-H460): > 100 µM (inactive)
GI50 (NCI-H522): > 100 µM (inactive)
GI50 (NCI/ADR-RES): > 100 µM (inactive)
GI50 (OVCAR-3): > 100 µM (inactive)
GI50 (OVCAR-5): > 100 µM (inactive)
GI50 (OVCAR-8): > 100 µM (inactive)
GI50 (PC-3): > 100 µM (inactive)
GI50 (RPMI-8226): > 100 µM (inactive)
GI50 (SF-295): 0.513 µM (active)
GI50 (SF-539): > 100 µM (inactive)
GI50 (SK-MEL-28): > 100 µM (inactive)
GI50 (SK-MEL-2): > 100 µM (inactive)
GI50 (SK-MEL-5): > 100 µM (inactive)
GI50 (SN12C): > 100 µM (inactive)
GI50 (SNB-19): > 100 µM (inactive)
GI50 (SR): > 100 µM (inactive)
GI50 (SW-620): > 100 µM (inactive)
GI50 (T47D): > 100 µM (inactive)
GI50 (TK-10): > 100 µM (inactive)
GI50 (U-251): > 100 µM (inactive)
GI50 (UACC-257): > 100 µM (inactive)
GI50 (UACC-62): > 100 µM (inactive)
GI50 (UO-31): > 100 µM (inactive)

CCN1CC(C)Cn2c(=O)[nH]c3cc(Br)cc1c32 (centres undefined)
GI50 (786-0): 22.6 µM (inactive)
GI50 (A498): 16.9 µM (inactive)
GI50 (A549): 25.6 µM (inactive)
GI50 (ACHN): 13.1 µM (inactive)
GI50 (BT-549): 4.1 µM (inactive)
GI50 (CAKI-1): 13.9 µM (inactive)
GI50 (CCRF-CEM): 7.67 µM (inactive)
GI50 (COLO 205): 11 µM (inactive)
GI50 (DU-145): 48.8 µM (inactive)
GI50 (EKVX): 3.3 µM (inactive)
GI50 (HCC 2998): 32.8 µM (inactive)
GI50 (HCT-116): 29.9 µM (inactive)
GI50 (HCT-15): 14.6 µM
GI50 (HL-60): 7.19 µM (inactive)
GI50 (HOP-62): 30.5 µM (inactive)
GI50 (HT-29): 33.5 µM (inactive)
GI50 (Hs-578T): 11 µM (inactive)
GI50 (IGROV-1): 18.5 µM (inactive)
GI50 (K562): 2.91 µM (inactive)
GI50 (KM12): 22.9 µM (inactive)
GI50 (LOX IMVI): 21.4 µM (inactive)
GI50 (M14): 34.1 µM (inactive)
GI50 (MCF7): 17.3 µM (inactive)
GI50 (MDA-MB-231): 22.4 µM (inactive)
GI50 (MDA-MB-435): 2.75 µM (inactive)
GI50 (MDA-N): 4.81 µM (inactive)
GI50 (MOLT-4): 3.05 µM (inactive)
GI50 (Malme-3M): 64.4 µM (inactive)
GI50 (NCI-H226): 11.9 µM (inactive)
GI50 (NCI-H23): 36.8 µM (inactive)
GI50 (NCI-H460): 30.6 µM (inactive)
GI50 (NCI/ADR-RES): 8.05 µM (inactive)
GI50 (OVCAR-3): 20.3 µM (inactive)
GI50 (OVCAR-4): 12.1 µM (inactive)
GI50 (OVCAR-5): 70.5 µM (inactive)
GI50 (OVCAR-8): 23.7 µM (inactive)
GI50 (PC-3): 30.9 µM (inactive)
GI50 (RPMI-8226): 1.79 µM (inactive)
GI50 (RXF 393): 6.9 µM (inactive)
GI50 (SF-268): 10.9 µM (inactive)
GI50 (SF-295): 21.1 µM (inactive)
GI50 (SF-539): 29.8 µM (inactive)
GI50 (SK-MEL-28): 35.7 µM (inactive)
GI50 (SK-MEL-2): 23.9 µM (inactive)
GI50 (SK-MEL-5): 19.1 µM (inactive)
GI50 (SK-OV-3): 27.7 µM (inactive)
GI50 (SN12C): 44.7 µM (inactive)
GI50 (SNB-19): 26.4 µM (inactive)
GI50 (SNB-75): 11.4 µM (inactive)
GI50 (SW-620): 5.01 µM (inactive)
GI50 (T47D): 18.5 µM (inactive)
GI50 (TK-10): 25 µM (inactive)
GI50 (U-251): 24 µM (inactive)
GI50 (UACC-257): 76 µM (inactive)
GI50 (UACC-62): 6.97 µM (inactive)
GI50 (UO-31): 40.1 µM (inactive)
